{"source": "paper PMC3049928", "about": "(Archives of biochemistry and biophysics, 2010)", "molecular_target": "SULT1A1 (human phenol sulfotransferase, human sulfotransferase 1A1) (Homo sapiens, UniProt P50225)", "sequence (P50225 whole entry)": "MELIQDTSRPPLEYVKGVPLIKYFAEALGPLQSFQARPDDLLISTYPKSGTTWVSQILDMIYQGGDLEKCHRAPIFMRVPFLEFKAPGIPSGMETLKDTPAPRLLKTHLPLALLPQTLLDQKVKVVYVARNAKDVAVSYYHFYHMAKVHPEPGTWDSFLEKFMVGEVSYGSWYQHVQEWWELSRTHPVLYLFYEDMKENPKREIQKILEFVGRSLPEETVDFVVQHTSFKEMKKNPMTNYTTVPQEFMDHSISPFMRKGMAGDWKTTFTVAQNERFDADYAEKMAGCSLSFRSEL", "experiment": "pNPS assay of PAP sulfation, p-nitrophenol absorbance at […] nm", "type": "biochemical", "data": [{"smiles": "Oc1ccc2ccccc2c1", "note": "[2-naphthol]", "values": [{"measurement": "Ki", "value": "2600 ± 200", "unit": "nM"}]}]}
